Values of other authors as cited in US12649947B2, “Method of treatment using genetic predictors of a response to treatment with CRHR1 antagonists” (HMNC Holding GmbH, priority 2015, dated 2026).

Tested on: mice overexpressing CRH in the forebrain

COCC(COC)Nc1nc(C)nc2c(-c3ccc(Cl)cc3Cl)c(C)nn12 [DMP696]
effect on REM sleep enhancement: could reverse the REM enhancement
